Measurements taken from patent publication US20050032138A1 (priority 2003, published 2005).
Read-outs that look alike come from different tables or passages of the source.

Assays:
PrPc [1] = target: T1, PrPc (Homo sapiens, UniProt P04156)
PrPc and PrPsc [2] = target: PrPc and PrPsc (Homo sapiens, UniProt P04156)
PrPc [3] = target: T1, PrPc; remark: listed apart in the source
PrPc [4] = target: PrPc (Mesocricetus auratus, UniProt P04273)
PrPc and PrPsc [5] = system: PrPc and PrPsc
[6] = Fast Red staining with 3F4, red/pink beads indicate bound native PrPc or antibody, scrapie-infected hamster brain homogenate

Sequence of PrPc (Mesocricetus auratus, UniProt P04273) (P04273 23-254 limits assumed): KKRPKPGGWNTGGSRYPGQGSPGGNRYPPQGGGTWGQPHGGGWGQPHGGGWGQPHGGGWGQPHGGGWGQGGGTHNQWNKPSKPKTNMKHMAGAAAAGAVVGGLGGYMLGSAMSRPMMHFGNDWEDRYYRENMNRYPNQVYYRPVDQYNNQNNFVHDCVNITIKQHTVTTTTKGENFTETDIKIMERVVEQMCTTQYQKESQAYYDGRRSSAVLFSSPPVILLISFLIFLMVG

Row | Substance | Bead Color (PrPc [4]) | Intensity of Chemiluminescent Signal after Denaturing (PrPc and PrPsc [5]) | other results
1 | DVR | White | Strong | Signal on the first support (PrPc [1]): weak; Isoform binding preference concluded from first and second support signals (PrPc and PrPsc [2]): preferentially binds PrPsc; Signal on the second support following denaturation and transfer (PrPc and PrPsc [2]): strong; Bead colour under the microscope following on-bead detection (PrPc [3]): white
2 | EHATYRA | White | Strong | –
3 | EWWETV | White | Medium | –
4 | FPK | – | – | Beads identified as PrPsc-specific binders (film 2 signal from PrPres after PK) (PrPres): specific for PrPsc
5 | FQGTREA | White | Strong | –
6 | HWK | – | – | Beads identified as PrPsc-specific binders (film 2 signal from PrPres after PK) (PrPres): specific for PrPsc
7 | KWATRYA | White | Strong | –
8 | LLR | – | – | Beads identified as PrPsc-specific binders (film 2 signal from PrPres after PK) (PrPres): specific for PrPsc
9 | NSTKFDA | Pink | Strong | –
10 | RWD | – | Strong | Bead Color (PrPc [4]; [6]): Bright pink
11 | RWEREDA | Pink | Strong | –
12 | SVYQLDA | White | Medium | –
13 | TGTNRYA | White | Strong | –
14 | VARENIA | White | Strong | –
15 | WEE | – | – | Beads identified as PrPsc-specific binders (film 2 signal from PrPres after PK) (PrPres): specific for PrPsc
16 | YID | – | Strong | Bead Color (PrPc [4]; [6]): Bright pink
